How the values were obtained:
[1] = biological target: T1, Enterobacter cloacae P99 β-lactamase (Enterobacter cloacae, UniProt P05364); experiment: Inhibition of P99 β-lactamase, nitrocefin assay (IC50); type: biochemical; conditions: nitrocefin substrate, 20 mM MOPS pH 7.50
T1 construct: purchased Porton Down, Wiltshire, U.K
Protocol: The enzyme (Enterobacter cloacae P99 β-lactamase) was dissolved to a concentration of 1 mg/mL in 20 mM MOPS buffer at pH 7.50, and then diluted 200-fold in the same buffer containing 0.1% BSA. The commercially available substrate nitrocefin was added as a 100 μM stock solution in 20 mM MOPS buffer, and inhibitors were also added as solutions in MOPS buffer. In a typical assay the following amounts were used: 300 μL of nitrocefin, 10 μL of P99 β-lactamase, x μL of inhibitor, and […] of MOPS buffer. Enzyme activity was measured at 25 EC, and the reaction was monitored spectrophotometrically at 482 nm. IC50 values were determined from the dose-response plots of the initial reaction rate vs. inhibitor concentration.

[2] = biological target: T1, Enterobacter cloacae P99 β-lactamase; type: biochemical; conditions: values in parentheses, second order rate constant for inhibition
Protocol: To evaluate the inhibitors and the methods of the invention, representative inhibitors preparations were tested using class A (TEM-2 plasmid TEM)) β-lactamase and class C (Enterobacter cloacae P99 β-lactamase) β-lactamases (Porton Down, Wiltshire, U.K.) as well as representative DD-peptidases/carboxydases (e.g., Streptomyces R61 DD-peptidases) as the assayed enzyme.
Steady state kinetic parameters were directly obtained for representative inhibitors with the P99 β-lactamase with TEM β-lactamase by standard methods (e.g., Wilkinson, Biochem J. 80:324–332 (1989)) from spectrophotometric initial velocity measurements. Kinetic parameters were also obtained for DD-peptidase as the assayed enzyme, according to standard methods using hyppuryl-DL-phenyl-lactate (a known DD-peptidase substrate) (e.g. Govardhan and Pratt, Biochemistry 26:3385–3395 (1987)). The concentration of stock enzyme solutions were determined spectrophotometrically (e.g., Xu, et al., Biochemistry 35:[…] (1996)).
Representative class C and a class A β-lactamases were inhibited by representative inhibitors of Formulae I and II in a time-dependent fashion as described by the relation:
Representative inhibitors of the invention having Formula I may act by forming a covalent bond between β-lactamases and the inhibitor (i.e., irreversible inhibition). This type of inhibition is therefore time dependent. It is distinguished from reversible inhibition in so far that the backward reaction is extremely slow. […] Thus, irreversible inhibition is measured by how fast the event takes place (rate constant ki). Thus, inhibitory efficiency is expressed by large ki values.
Representative inhibitors of Formula I may also act by forming a transient acyl-enzyme intermediate. Inhibition results from a slow turn over, (de-acylation) of the intermediate.
In Table 3, kcat/km values are presented in plain text, with ki values for representative inhibitors appearing in parentheses. […]

Staph. Aureaus = experiment: Microbiological testing: potentiation of β-lactam antibiotic; type: cell-based; conditions: Piperacillin, compound at 100 μg/mL
Source text: (§1) To test the inhibitors of the invention, a wide range of organisms are used to assess compounds according to the invention; both as antibiotics and as β-Lactamase inhibitors: Initial screening for antibiotic activity utilizes penicillin sensitive S. aureus [ATTC# 25923], ampicillin sensitive H. influenzae [ATCC#10211] and clinical laboratory isolates of ampicillin sensitive E. faecalis and H. influenzae, and non-resistant P. aeruginosa. Initial studies utilize, in microtiter wells, 1 microgram of compound in 10 microliters diluted stock solution, 41,100 CFU of bacteria in 10 microliters broth solution and 80 microliters CAMHB. The count verification well contains 10 microliters CAMHB in place of the test compound. […] Microbiological and enzymatic testing is carried on duplicate plates with negative control plates.
(§2) Compounds were tested at a concentration of 100 μg/mL.
(§3) In Table 5, the microorganism tested against is shown in italics, while the antibiotic agent used is shown in plain text. […] When determined, the number in parentheses indicates the fold reduction in the MIC of the antibiotic agent when measured in the presence of the inhibitor of the invention.

[3] = Spontaneous hydrolysis in neutral aqueous solution; type: physicochemical; conditions: for spontaneous hydrolysis, in words: neutral aqueous solution, relative to most compounds of the invention
Protocol: The cyclic phosphoryl chloride (500 mg; 2.3 mmol) was suspended in 60 mL of anhydrous acetonitrile (Aldrich, Sure/Seal) and water (41 μL, 2.3 mmol) added with magnetic stirring. The mixture was then gently warmed until the crystals of the starting material disappeared (ca. 5 min.). Two molar equivalents of redistilled dicyclohexylamine (913 μL) were then added. The immediately precipitating solid ([…]) was removed by vacuum filtration and the remaining solvent by rotary evaporation.

Haemophilus Influenzae = experiment: Microbiological testing: potentiation of β-lactam antibiotic; type: cell-based; conditions: Ticarcillin, compound at 100 μg/mL
Source text: as §1, §2, §3

Ent. Cloacae = experiment: as above; type: cell-based; conditions: compound at 100 μg/mL
Source text: as §1, §2, §3

[4] = biological target: TEM-2 plasmid (TEM) β-lactamase (Escherichia coli, UniProt P62593, Q37K); type: biochemical; conditions: values in parentheses

| Compound | ki [2] | further results |
| --- | --- | --- |
| O=C(OP(=O)(O)Oc1cccc2ccccc12)c1ccccc1 [Compound XII] |  | IC50 [1]: 8 µM |
| O=C(OP(=O)(O)c1cccc([N+](=O)[O-])c1)c1ccccc1 [Compound XIX] | 0.0179(65 ± 19) s^−1 M^−1 |  |
| O=C(OP(=O)(O)Oc1ccc([N+](=O)[O-])cc1)c1ccccc1 [Compound XI] | ≤ 2 s⁻¹ M⁻¹ | IC50 [1]: 39 µM |
| O=C(OP(=O)(O)c1ccc([N+](=O)[O-])cc1)c1ccccc1 [Compound XVIII] | 0.0125(25 ± 3) s^−1 M^−1 |  |
| CCCCCCOP(=O)(O)OC(=O)c1ccccc1 [Compound XVII] | 0.125(≦1) s^−1 M^−1 |  |
| O=C1C=C(c2ccccc2)OP(=O)(O)O1 [Compound XVI] |  | fold reduction in the MIC of the antibiotic agent (Staph. Aureaus): 2 fold |
| CCCCCCP(=O)(O)OC(=O)c1ccccc1 [Compound XXII] | 0.0226(11.1 ± 0.1) s^−1 M^−1 |  |
| COc1ccccc1C(=O)OP(=O)(O)Oc1ccccc1 [Compound XXIX] | 3.6 ± 0.4 s⁻¹ M⁻¹ |  |
| O=C(OP(=O)(O)c1ccc(-c2ccccc2)cc1)c1ccccc1 [Compound XXI] | 0.117(89 ± 4) s^−1 M^−1 |  |
| Cc1cccc(C)c1C(=O)OP(=O)(O)Oc1ccccc1 [Compound XXVIII] | (20.9 ± 1.5) s^−1 M^−1 |  |
| O=C(OP(=O)(O)Oc1ccccc1)c1ccc(-c2ccccc2)cc1 [Compound XXVII] | ≤ 3 s⁻¹ M⁻¹ |  |
| O=C(OP(=O)(O)Oc1ccccc1)c1cc2ccccc2s1 [Compound XXVI] | ≤ 5 s⁻¹ M⁻¹ |  |
| O=C(/C=C/c1ccccc1)OP(=O)(O)Oc1ccccc1 [Compound XXV] | ≤ 1 s⁻¹ M⁻¹ |  |
| O=C(OP(=O)(O)Oc1ccc2ccccc2c1)c1ccccc1 [Compound XXXI] | ≤ 1 s⁻¹ M⁻¹ |  |
| O=C(OP(=O)(O)Oc1ccc2ccccc2c1)c1cc2ccccc2s1 [Compound XXX] | 1813 ± 3 s⁻¹ M⁻¹ |  |
| O=C(OP(=O)(O)c1ccc2ccccc2c1)c1ccccc1 [Compound XX] | 0.0551(115 ± 5) s^−1 M^−1 |  |
| O=C(Cc1ccccc1)OP(=O)(O)Oc1ccccc1 [Compound X] | ≤ 0.04 s⁻¹ M⁻¹ | IC50 [1]: 30 µM; spontaneous hydrolysis, in words [3]: shorter half-lives |
| O=C1OP(=O)(O)Oc2ccccc21 [V, 1-hydroxy-4,5-benz-2.6-dioxaphosphorinanone-(3)-1-oxide] |  | rate of hydrolysis kobs ([3]; 20 mM MOPS, pH 7.5, 25° C.): 1.7e-05 s⁻¹ |
| COP(=O)(O)OC(=O)c1ccccc1 [VIII] |  | fold reduction in the MIC of the antibiotic agent (Haemophilus Influenzae): 0 fold; fold reduction in the MIC of the antibiotic agent (Ent. Cloacae; Cefoxitin): 2 fold; fold reduction in the MIC of the antibiotic agent (Ent. Cloacae; Ceftriaxone): 2 fold |
| O=C(OP(=O)(O)Oc1ccccc1)c1ccccc1 [XIII, sodium benzoyl phenyl phosphate] |  | ki [4]: 0.001(0.2) s^−1 M^−1 |
| O=C(OP(=O)(O)OC(=O)c1ccccc1)c1ccccc1 [XIV, sodium dibenzoyl phosphate] |  | ki [4]: 0.120(14.3) s^−1 M^−1 |
| O=C(NCP(=O)(O)OC(=O)c1ccccc1)OCc1ccccc1 [XXXIII] | (5.9 ± 0.3 × 10^4) s^−1 M^−1 | spontaneous hydrolysis, in words [3]: more rapidly hydrolyzed; ki [4]: (130 ± 8) s^−1 M^−1 |
| O=C(Cc1ccccc1)NCC(=O)OP(=O)(O)Oc1ccccc1 [XXXII] |  | spontaneous hydrolysis, in words [3]: more rapidly hydrolyzed |
